Consider eleven compounds from US6034058A, “Semi-synthetic alanyl dilemnin analogs” (priority 1998, dated 2000).

Data set [1] has as its system L1210. In kind it is cell-based. The conditions noted are these: for L1210, IC90: L1210 cells, cytotoxicity.
The subject of data set [2] is DNA and RNA viruses. The conditions noted are these: against DNA and RNA viruses; cited from earlier work.
In data set [3] the target is elongation factor-1α (EF-1α) (Homo sapiens, UniProt P68104). The conditions noted are these: GEP-dependent manner; cited from earlier work.
Sequence of elongation factor-1α (EF-1α) (P68104 whole entry): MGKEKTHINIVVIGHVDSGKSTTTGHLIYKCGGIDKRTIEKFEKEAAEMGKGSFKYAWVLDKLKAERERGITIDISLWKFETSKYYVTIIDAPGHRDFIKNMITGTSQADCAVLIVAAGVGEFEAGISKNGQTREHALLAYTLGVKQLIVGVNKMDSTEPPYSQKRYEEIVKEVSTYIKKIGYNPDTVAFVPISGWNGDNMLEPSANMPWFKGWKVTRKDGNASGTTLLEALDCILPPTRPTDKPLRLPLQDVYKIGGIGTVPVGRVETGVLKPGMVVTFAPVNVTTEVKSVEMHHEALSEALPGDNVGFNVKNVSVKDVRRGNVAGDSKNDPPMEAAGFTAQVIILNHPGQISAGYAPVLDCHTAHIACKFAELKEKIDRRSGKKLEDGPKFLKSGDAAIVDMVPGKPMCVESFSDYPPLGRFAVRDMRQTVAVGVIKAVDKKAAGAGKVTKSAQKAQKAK
In data set [4] the test system is Nb2 node lymphoma cells. The conditions noted are these: cited from earlier work.
For data set [5] the following is noted: in vitro; cited from earlier work.

Numbered stars: 1 amine (or outer) side, 2 acyl side, 3 side chain; on linkers, the order of the positions; unused ones are H or OH. Bridge positions count the residues as written; N and C are the ends. Square brackets hold non-standard residues; d marks the D form. Peptide text beside a SMILES is read from it. X1 = CC[C@H](C)[C@@H](N[*:1])[C@@H](O)CC(=O)O[C@H](C(=O)[C@H](C)C(=O)[*:2])C(C)C; NMeY = CN[C@@H](Cc1ccc(O)cc1)C(=O)O; dNMeL = CN[C@H](CC(C)C)C(=O)O

On to Pro-Didemnin A [Prolyl DA], for which the “L1210, IC90” value in data set [1] came out at 12 ng/mL.
Take “L-pyroglutamyl-L-[alaninyl^9 ] didemnin B [pGlu-[Ala^9]DB]”: the “L1210, IC90” value in data set [1] was 500 ng/mL.
For the compound “N-Benzyloxycarbonly-L-[Alaninyl^9 ]didemnin B [Cbz-[Ala^9]DB]”, the “L1210, IC90” value in data set [1] stood at 2 ng/mL.
Regarding `CC[C@H](C)[C@H]1NC(=O)[C@@H](NC(=O)[C@@H](CC(C)C)NC)[C@@H](C)OC(=O)[C@H](Cc2ccc(OC)cc2)N(C)C(=O)[C@@H]2CCCN2C(=O)[C@H](CC(C)C)NC(=O)[C@@H](C)C(=O)[C@H](C(C)C)OC(=O)C[C@@H]1O` [Didemnin A] (H-[dNMeL]T[X1]LP[NMeY](Me); ester 2-C), the antiviral activity entry in data set [2] was “exhibit antiviral activity”. Also, the “binding to EF-1α” value in data set [3] is “binds elongation factor-1α (EF-1α)”. For the same compound, the “L1210, IC90” value in data set [1] turned out to be 75 ng/mL.
“L-glutaminyl-L-alaninyl-didemnin A [Glutaminyl-AlaDA]”: in data set [1], the “L1210, IC90” value is reported as 25 ng/mL.
As to L-[Alaninyl^9 ] didemnin B [[Ala^9]DB], in data set [1] (preliminary assay results), the “relative bioactivity among the didemnins synthesized” value is given as “the most active of the didemnins synthesized thus far”.
Turning to “L-glutaminyl-L-[alaninyl^9 ]didemnin B [Gln-[Ala^9]DB]”, the “L1210, IC90” value in data set [1] is 200 ng/mL.
On the same count and under the same terms, the same measure for “N-Benzyloxycarbonyl-L-alaninyl-didemnin A [Cbz-Alaninyl DA]”: 3 ng/mL; for “N-Benzyloxycarbonyl-L-glutaminyl-didemnin A [Cbz-Glutaminyl DA]”: 8 ng/mL; for L-Alaninyl-didemnin A [Alaninyl DA]: 8 ng/mL.
For the compound `CC[C@H](C)[C@H]1NC(=O)[C@@H](NC(=O)[C@@H](CC(C)C)N(C)C(=O)[C@@H]2CCCN2C(=O)C(C)O)[C@@H](C)OC(=O)[C@H](Cc2ccc(OC)cc2)N(C)C(=O)[C@@H]2CCCN2C(=O)[C@H](CC(C)C)NC(=O)[C@@H](C)C(=O)[C@H](C(C)C)OC(=O)C[C@@H]1O` (stereo partly shown) [Didemnin B], the “binding to a site on Nb2 node lymphoma cells” value in data set [4] is listed as “binds to a site on Nb2 node lymphoma cells”. Also, in data set [2], the antiviral activity result is “exhibit antiviral activity”. For the same compound, the “L1210, IC90” value in data set [1] came out at 7 ng/mL. The “cytotoxicity relative to didemnin A” value in data set [5] is recorded as “approximately twenty times more cytotoxic than didemnin A”.
